Results: PubChem BioAssay AID1963844 (Molecular Pharmacology Branch, DTP, NCI, 2024)

Test system: 422866-222-R5-J1-PDC complex spheroid viability
Experiment: Anticancer human tumor 422866-222-R5-J1-PDC patient-derived pancreatic adenocarcinoma cell line growth inhibition [POLQ]
Details: for IC50: curve of first compound; for viability, T/C: stronger effect = lower value
Summary of the method: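 Complex spheroid viability model combining PDC tumour cells with endothelial (HUVEC) and MSC stromal cells. Novobiocin, ART-558 or RP6685 were tested singly and in combination with standard and investigational anticancer drugs. Each was titrated in half-log steps from near clinical Cmax, or from 10 microM where Cmax was unknown.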

[1] = second compound 0.0316 µM, first compound 0.0316 µM
[2] = second compound 0.0316 µM, first compound 0.1 µM
[3] = second compound 0.0316 µM, first compound 0.316 µM
[4] = second compound 0.0316 µM, first compound 1 µM
[5] = second compound 0.0316 µM, first compound 3.16 µM
[6] = second compound 0.0316 µM, first compound 10 µM
[7] = second compound 0.1 µM, first compound 0.0316 µM
[8] = second compound 0.1 µM, first compound 0.1 µM
[9] = second compound 0.1 µM, first compound 0.316 µM
[10] = second compound 0.1 µM, first compound 1 µM
[11] = second compound 0.1 µM, first compound 3.16 µM
[12] = second compound 0.1 µM, first compound 10 µM
[13] = second compound 0.316 µM, first compound 0.0316 µM
[14] = second compound 0.316 µM, first compound 0.1 µM
[15] = second compound 0.316 µM, first compound 0.316 µM
[16] = second compound 0.316 µM, first compound 1 µM
[17] = second compound 0.316 µM, first compound 3.16 µM
[18] = second compound 0.316 µM, first compound 10 µM
[19] = second compound 1 µM, first compound 0.0316 µM
[20] = second compound 1 µM, first compound 0.1 µM
[21] = second compound 1 µM, first compound 0.316 µM
[22] = second compound 1 µM, first compound 1 µM
[23] = second compound 1 µM, first compound 3.16 µM
[24] = second compound 1 µM, first compound 10 µM
[25] = second compound 3.16 µM, first compound 0.0316 µM
[26] = second compound 3.16 µM, first compound 0.1 µM
[27] = second compound 3.16 µM, first compound 0.316 µM
[28] = second compound 3.16 µM, first compound 1 µM
[29] = second compound 3.16 µM, first compound 3.16 µM
[30] = second compound 3.16 µM, first compound 10 µM
[31] = second compound 10 µM, first compound 0.0316 µM
[32] = second compound 10 µM, first compound 0.1 µM
[33] = second compound 10 µM, first compound 0.316 µM
[34] = second compound 10 µM, first compound 1 µM
[35] = second compound 10 µM, first compound 3.16 µM
[36] = second compound 10 µM, first compound 10 µM
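Note: spheroids exposed to compounds for one week before readout.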
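Throughout, for viability, T/C: percent of DMSO vehicle wells luminescence so 100% = untreated viability.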

C#Cc1c(F)ccc2cc(O)cc(-c3ncc4c(N5CC6CCC(C5)N6)nc(OCC56CCCN5CC(F)C6)nc4c3F)c12 (stereo not drawn) + Cc1cccc(N(C)C(=O)C2C(O)CCN2c2nc(C)cc(C(F)(F)F)c2C#N)c1
IC50 (second compound 0.0316 µM): 758 nM
IC50 (second compound 0.1 µM): 1090 nM
IC50 (second compound 0.316 µM): 762 nM
IC50 (second compound 1 µM): 712 nM
IC50 (second compound 3.16 µM): 480 nM
IC50 (second compound 10 µM): 465 nM
viability, T/C [1]: 104%
viability, T/C [2]: 79.8%
viability, T/C [3]: 65.2%
viability, T/C [4]: 45.5%
viability, T/C [5]: 33%
viability, T/C [6]: 28.7%
viability, T/C [7]: 92.1%
viability, T/C [8]: 87.2%
viability, T/C [9]: 65.7%
viability, T/C [10]: 54.6%
viability, T/C [11]: 33.3%
viability, T/C [12]: 25.9%
viability, T/C [13]: 102%
viability, T/C [14]: 80%
viability, T/C [15]: 67.6%
viability, T/C [16]: 46%
viability, T/C [17]: 29.3%
viability, T/C [18]: 29.1%
viability, T/C [19]: 95.8%
viability, T/C [20]: 96.9%
viability, T/C [21]: 68.1%
viability, T/C [22]: 43.7%
viability, T/C [23]: 33.5%
viability, T/C [24]: 32%
viability, T/C [25]: 92.8%
viability, T/C [26]: 74.4%
viability, T/C [27]: 57%
viability, T/C [28]: 40.8%
viability, T/C [29]: 30.3%
viability, T/C [30]: 33.9%
viability, T/C [31]: 84.3%
viability, T/C [32]: 69.2%
viability, T/C [33]: 56.1%
viability, T/C [34]: 39.9%
viability, T/C [35]: 32.3%
viability, T/C [36]: 27.6%

CC1COCCN1c1cc(C2(O)CC3CCC(C2)O3)c2cnn(-c3ccn[nH]3)c2n1 (stereo not drawn) + Cc1cccc(N(C)C(=O)C2C(O)CCN2c2nc(C)cc(C(F)(F)F)c2C#N)c1
IC50 (second compound 0.0316 µM): > 10000 nM
IC50 (second compound 0.1 µM): > 10000 nM
IC50 (second compound 0.316 µM): > 10000 nM
IC50 (second compound 1 µM): > 10000 nM
IC50 (second compound 3.16 µM): 31.6 nM
IC50 (second compound 10 µM): > 10000 nM
viability, T/C [1]: 87.5%
viability, T/C [2]: 42.3%
viability, T/C [3]: 44.2%
viability, T/C [4]: 85.3%
viability, T/C [5]: 70.9%
viability, T/C [6]: 73.2%
viability, T/C [7]: 75.1%
viability, T/C [8]: 55.5%
viability, T/C [9]: 52.2%
viability, T/C [10]: 79.2%
viability, T/C [11]: 68.8%
viability, T/C [12]: 72.2%
viability, T/C [13]: 72.5%
viability, T/C [14]: 40.9%
viability, T/C [15]: 52.5%
viability, T/C [16]: 70.3%
viability, T/C [17]: 80.7%
viability, T/C [18]: 74.7%
viability, T/C [19]: 77.8%
viability, T/C [20]: 44.7%
viability, T/C [21]: 51.3%
viability, T/C [22]: 70.6%
viability, T/C [23]: 71.3%
viability, T/C [24]: 92.5%
viability, T/C [25]: 74.8%
viability, T/C [26]: 48.1%
viability, T/C [27]: 41.1%
viability, T/C [28]: 95.4%
viability, T/C [29]: 78.2%
viability, T/C [30]: 79%
viability, T/C [31]: 76.2%
viability, T/C [32]: 45.2%
viability, T/C [33]: 54.3%
viability, T/C [34]: 85.3%
viability, T/C [35]: 82.4%
viability, T/C [36]: 82.6%

O=C(Nc1ccc(O)c(NS(=O)(=O)c2ccc(F)cc2)c1)c1ccc(-c2ccccc2)cc1 + Cc1cccc(N(C)C(=O)C2C(O)CCN2c2nc(C)cc(C(F)(F)F)c2C#N)c1
IC50 (second compound 0.0316 µM): > 10000 nM
IC50 (second compound 0.1 µM): > 10000 nM
IC50 (second compound 0.316 µM): > 10000 nM
IC50 (second compound 1 µM): > 10000 nM
IC50 (second compound 3.16 µM): > 10000 nM
IC50 (second compound 10 µM): > 10000 nM
viability, T/C [1]: 94.2%
viability, T/C [2]: 89.3%
viability, T/C [3]: 73.9%
viability, T/C [4]: 89.3%
viability, T/C [5]: 99.8%
viability, T/C [6]: 121%
viability, T/C [7]: 85.4%
viability, T/C [8]: 89.8%
viability, T/C [9]: 89%
viability, T/C [10]: 91.3%
viability, T/C [11]: 95.5%
viability, T/C [12]: 116%
viability, T/C [13]: 94.3%
viability, T/C [14]: 99%
viability, T/C [15]: 90.9%
viability, T/C [16]: 101%
viability, T/C [17]: 90.7%
viability, T/C [18]: 106%
viability, T/C [19]: 96%
viability, T/C [20]: 94.5%
viability, T/C [21]: 99.2%
viability, T/C [22]: 88.9%
viability, T/C [23]: 86.3%
viability, T/C [24]: 113%
viability, T/C [25]: 97.2%
viability, T/C [26]: 91.8%
viability, T/C [27]: 89.2%
viability, T/C [28]: 92.9%
viability, T/C [29]: 94.2%
viability, T/C [30]: 118%
viability, T/C [31]: 71.9%
viability, T/C [32]: 82.3%
viability, T/C [33]: 87.3%
viability, T/C [34]: 86.8%
viability, T/C [35]: 97.6%
viability, T/C [36]: 103%

COc1cccc2c1C(=O)c1c(O)c3c(c(O)c1C2=O)CC(O)(C(=O)CO)CC3OC1CC(N)C(O)C(C)O1 (stereo not drawn) + Nc1ccc(C#CCN(C(=O)Cc2ncc(C(F)(F)F)cc2C(F)(F)F)c2ccc(F)cc2)nn1
IC50 (second compound 0.0316 µM): 65.9 nM
IC50 (second compound 0.1 µM): 118 nM
IC50 (second compound 0.316 µM): 67.7 nM
IC50 (second compound 1 µM): 81 nM
IC50 (second compound 3.16 µM): 92.3 nM
IC50 (second compound 10 µM): 142 nM
viability, T/C [1]: 60%
viability, T/C [2]: 44.3%
viability, T/C [3]: 32.5%
viability, T/C [4]: 30.2%
viability, T/C [5]: 34.6%
viability, T/C [6]: 28.3%
viability, T/C [7]: 52.7%
viability, T/C [8]: 54.3%
viability, T/C [9]: 28.9%
viability, T/C [10]: 33.3%
viability, T/C [11]: 29.6%
viability, T/C [12]: 27.2%
viability, T/C [13]: 58.4%
viability, T/C [14]: 45.2%
viability, T/C [15]: 35.1%
viability, T/C [16]: 24.8%
viability, T/C [17]: 28.6%
viability, T/C [18]: 26.6%
viability, T/C [19]: 59.2%
viability, T/C [20]: 47.7%
viability, T/C [21]: 34.4%
viability, T/C [22]: 26.4%
viability, T/C [23]: 28.6%
viability, T/C [24]: 30.8%
viability, T/C [25]: 57.7%
viability, T/C [26]: 49.3%
viability, T/C [27]: 31.5%
viability, T/C [28]: 23%
viability, T/C [29]: 36%
viability, T/C [30]: 24.5%
viability, T/C [31]: 54.4%
viability, T/C [32]: 55.5%
viability, T/C [33]: 38.7%
viability, T/C [34]: 22.6%
viability, T/C [35]: 32.8%
viability, T/C [36]: 30.5%
